Measurements from US10287305B2, “Substituted piperidine compound and use thereof” (Takeda Pharmaceutical Company Limited, priority 2016, dated 2019).

Molecular target: human orexin type 2 receptor (hOX2R) (Homo sapiens (Human), UniProt O43614)
Assay: Measurement of orexin type 2 receptor agonist activity (Experimental Example 2-1, FLIPR TETRA, intracellular Ca2+)
Type: cell-based
Details: CHO dhfr- cells expressing hOX2R; for Emax: read-out: Emax (%); for Emax at 30 µM: value at 30 uM concentration, orexin B as full agonist = 100%
Description: To obtain a cell clone stably expressing human orexin type 2 receptor, human orexin type 2 receptor cDNA was inserted into pcDNA3.1(+) plasmid vector (Invitrogen), and a plasmid DNA for expression of human orexin type 2 receptor (pcDNA3.1(+)/hOX2R) was cloned. The plasmid DNA was introduced into CHO-dhfr cell by an electroporation method, and human orexin type 2 receptor expressing clone cells were obtained by limiting dilution method by using G418 drug resistance as a selection marker.
Chinese hamster ovary (CHO) dhfr-cells forcibly expressing human orexin type 2 receptor (hOX2R) were seeded in each well of Black clear bottom plate (384 wells) (Becton, Dickinson and Company) by 10,000 cells, and cultured for 16 hr in an MEM-alpha (Nikken-Bio Co., Ltd.) medium containing 100 U/ml penicillin, 100 μg/ml streptomycin, […] G418 (all above Invitrogen), and 10% fetal calf serum (Thermo), under the conditions of 37° C., 5% CO2. […] A test compound was dissolved in dimethyl sulfoxide to 10 mM, and then diluted with assay buffer 2 (20 mM HEPES, Hanks' balanced salt solution (Invitrogen), 0.1% bovine serum albumin). For the reaction, a test compound solution (10 μL) was added using Fluorescent Imaging Plate Reader TETRA (FLIPR TETRA; manufactured by Molecular Devices), a fluorescence value (excitation wavelength 488 nm, measurement wavelength 570 nm) of each well was measured every one second for 1 min, and the agonist activity was determined using the area of the fluorescence value as an indicator of intracellular Ca^2+ concentration.

[1] = agonist activity, 10 nM human orexin B = 100%

human orexin type 2 receptor (hOX2R), sequence (O43614 whole entry): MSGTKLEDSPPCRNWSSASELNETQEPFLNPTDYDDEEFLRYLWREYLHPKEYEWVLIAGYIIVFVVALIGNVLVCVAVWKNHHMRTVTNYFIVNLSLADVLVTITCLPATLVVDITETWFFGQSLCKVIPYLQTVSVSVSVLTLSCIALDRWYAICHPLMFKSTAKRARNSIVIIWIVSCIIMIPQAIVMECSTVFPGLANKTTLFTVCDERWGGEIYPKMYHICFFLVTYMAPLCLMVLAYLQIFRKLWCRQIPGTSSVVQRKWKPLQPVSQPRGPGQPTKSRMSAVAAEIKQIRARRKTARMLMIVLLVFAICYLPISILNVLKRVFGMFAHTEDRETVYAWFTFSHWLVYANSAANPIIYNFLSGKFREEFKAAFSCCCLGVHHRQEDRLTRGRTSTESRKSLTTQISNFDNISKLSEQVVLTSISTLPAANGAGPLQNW

EC50 (FLIPR TETRA, Fluo-4AM) [nM]	Emax (FLIPR TETRA, Fluo-4AM) [%]	EC50 [1] [nM]	Emax at 30 µM [%]	Compound
30	104			CC(C)OC(=O)N1CCC[C@H](NS(C)(=O)=O)[C@@H]1CO[C@H]1CCN(c2ncccn2)C[C@H]1F (relative stereo) [Example 342, isopropyl cis-2-(((cis-3-fluoro-1-(pyrimidin-2-yl)piperidin-4-yl)oxy)methyl)-3-((methylsulfonyl)amino)piperidine-1-carboxylate]
		220	113	CS(=O)(=O)N[C@H]1CCCN[C@H]1CO[C@H]1CC[C@@H](c2cc(F)ccc2F)CC1 [Example 10, N-((2R,3S)-2-(((cis-4-(2,5-difluorophenyl)cyclohexyl)oxy)methyl)piperidin-3-yl)methanesulfonamide]
8.1	102			CC(C)OC(=O)N1CCC[C@H](NS(C)(=O)=O)[C@@H]1COC1CCN(c2ncccn2)CC1 (relative stereo) [Example 255, isopropyl cis-3-((methylsulfonyl)amino)-2-(((1-(pyrimidin-2-yl)piperidin-4-yl)oxy)methyl)piperidine-1-carboxylate]
2000	92			CS(=O)(=O)N[C@H]1CCCN(C(=O)C2CC2)[C@H]1COC1CCN(c2ccccc2Cl)CC1 (relative stereo) [Example 201, N-(cis-2-(((1-(2-chlorophenyl)piperidin-4-yl)oxy)methyl)-1-(cyclopropylcarbonyl)piperidin-3-yl)methanesulfonamide]
	90			CS(=O)(=O)N[C@H]1CCCN(C(=O)C2CC2)[C@H]1CO[C@H]1CC[C@@H](C)CC1 (relative stereo) [Example 197, N-(cis-1-(cyclopropylcarbonyl)-2-(((cis-4-methylcyclohexyl)oxy)methyl)piperidin-3-yl)methanesulfonamide]
		0.12	91	CCNC(=O)N1CCC[C@H](NS(C)(=O)=O)[C@@H]1CO[C@H]1CC[C@@H](c2ccccc2F)CC1 (relative stereo) [Example 117, cis-N-ethyl-2-(((cis-4-(2-fluorophenyl)cyclohexyl)oxy)-methyl)-3-((methylsulfonyl)amino)piperidine-1-carboxamide]
	97			COC(=O)N1CCC[C@H](NS(C)(=O)=O)[C@@H]1CO[C@H]1CC[C@@H](c2c(F)ccc(F)c2F)CC1 [Example 257, methyl (2R,3S)-3-((methylsulfonyl)amino)-2-(((cis-4-(2,3,6-trifluorophenyl)cyclohexyl)oxy)methyl)piperidine-1-carboxylate]
		940	93	CC(C)[C@H]1CC[C@@H](OC[C@H]2[C@@H](NS(C)(=O)=O)CCCN2C(=O)N2CCCC2)CC1 (relative stereo) [Example 39, N-(cis-2-(((cis-4-isopropylcyclohexyl)oxy)methyl)-1-(pyrrolidin-1-ylcarbonyl)piperidin-3-yl)methanesulfonamide]
0.72	101			CS(=O)(=O)N[C@H]1CCCN(C(=O)C2CC2)[C@H]1CO[C@H]1CC[C@@H](c2c(F)ccc(F)c2F)CC1 [Example 258, N-((2R,3S)-1-(cyclopropylcarbonyl)-2-(((cis-4-(2,3,6-trifluorophenyl)cyclohexyl)oxy)methyl)piperidin-3-yl)methanesulfonamide]
		21	102	CC(=O)N1CCC[C@H](NS(C)(=O)=O)[C@@H]1CO[C@H]1CC[C@@H](c2ccccc2C(F)(F)F)CC1 [Example 24, N-((2R,3S)-1-acetyl-2-(((cis-4-(2-(trifluoromethyl)phenyl)cyclohexyl)oxy)methyl)piperidin-3-yl)methanesulfonamide]
		2300	93	CC(C)[C@H]1CC[C@@H](OC[C@H]2[C@@H](NS(C)(=O)=O)CCCN2S(=O)(=O)C2CC2)CC1 (relative stereo) [Example 62, N-(cis-1-(cyclopropylsulfonyl)-2-(((cis-4-isopropylcyclohexyl)oxy)methyl)piperidin-3-yl)methanesulfonamide]
